Test results published in article PMC11530130, “Peripherally restricted PICK1 inhibitor mPD5 ameliorates pain behaviors in murine inflammatory and neuropathic pain models” (JCI Insight, 2024).

Tests used:
[1] = tested on: mice, spared nerve injury (SNI) model; format: in vivo, mouse; details: mouse, in vivo, sc
Protocol: solution (0.05 mg/kg) injected s.c. 30 min before surgery (10 μL/g). For surgery, mice were anaesthetised with ketamine (100 mg/kg, i.p.) and xylazine (10 mg/kg, i.p.) (volume 10 µL/g) with 100 μL of 1% xylocaine solution infiltrated at the site of the incision. The distal trifurcation of the sciatic nerve was identified, and the tibial and common peroneal branches were ligated with polypropylene nonabsorbable 6-0 sutures (Ethicon) and 1 mm was cut out, leaving the sural branch intact. The wound was closed with sutures, and the animals were allowed to recover and returned to their cages. Two subcutaneous injections of buprenorphine (0.05 mg/kg) were performed with an 8 to 12 hours delay decreasing pain due to the surgery […]
The remaining SNI pain experiments were performed in-house using the following procedure.
SNI surgery was performed on the left hindleg of C57BL/6J male and female mice (Janvier, France) under 2% isoflurane anaesthesia. Skin on the lateral surface was incised between hip and knee followed by lengthwise division of the biceps femoris muscle leading to exposure of the three branches of the sciatic nerve. Sural branch was left intact, while the peroneal and tibial branches were ligated with a single surgical knot and axotomized distally of the ligation.
Wounds were closed with surgical glue or medical clips and animals were monitored daily for signs of stress or discomfort, but in all cases recovered uneventfully. […]
(§1) The skin wound was closed with two medical clips (Michel Suture Clips, 7.5x1.75 mm, Angthos, 12040-01). Post-surgical analgesia included s.c. injection of 5 mg/kg carprofen (Carprosan vet, 50 mg/mL mixed 1:25 in sterile ddH2O, Dechra, Le Vet Beheer B.V., Netherlands, Batch: 050520) right after surgery and the […]
(§2) following day. […]
(§3) The test battery of the CIBP model was carried out 45 or 90 min after morphine and mPD5 administration respectively to accommodate the peak efficacy […]
(§4) Mechanically evoked pain (von Frey test).
(§5) Unless otherwise specified, von Frey occurred as described in the following. Animals were habituated to the experimental room for a minimum of 60 min before initiation of the experiment. Mechanical paw withdrawal threshold (PWT) was determined by von Frey measurements of both hind paws. Von Frey filaments ranging from 0.04 to 2 g (g = gram- […]
(§6) Filaments in ascending order were applied to the frontocentral plantar surface of the hind paws.
(§7) Mice were placed in PVC plastic boxes (11.5 cm x 14 cm) on a wire mesh and allowed minimum 20 min habituation prior of experiment initiation. Each von Frey hair was applied five times with adequate resting periods between each application and number of withdrawals recorded. The withdrawal threshold was determined as the von Frey filament eliciting at least three positive trials out of the five applications in two consecutive filaments. A positive trial was defined as sudden paw withdrawal, flinching and/or paw licking induced by the filament.
(§8) For the CIBP model, two habituation sessions were performed on separated days with mice placed in the von Frey equipment for 1-1.5 hours in the presence of the experimenter on day one and random von Frey pocking with the 0.6 g filament on day two. Von Frey monofilaments (North Coast Touch Test, North Coast Medical, Inc.) with target forces of 0.04g, 0.07g, 0.16g, […]
(§9) down method” (PWT=10Xf+kδ) starting with the 0.6 g filament. Positive response was defined as; withdrawal, shaking or grooming of paw following a 2-3 second stimulation. In case, of unclear response, stimulus was repeated after 10-15 seconds.
(§10) For the STZ model, the mechanical threshold response of the injected mice was measured with […]
(§11) injection of test compounds on day 14, mechanical threshold was measured at 1 hour, 2 hours, 4 hours and 6 hours and again on day 15. […]
(§12) Thermally evoked pain (Hargreaves test).
A baseline Hargreaves test was performed on day 0 before inflammatory pain was induced as described in section 2.13. In the Hargreaves test, the mouse was placed in a container on a glass […]

[2] = tested on: mice, streptozocin (STZ) model of type 1 diabetes; assay: STZ model of diabetic neuropathy, von Frey; format: in vivo, mouse; details: male mice, positive control, dose not given
Protocol: Induction of Diabetic neuropathy (STZ model).
Diabetes was induced by a single i.p. injection of […] streptozocin (STZ) solution (100 μL/10 g, Sigma-Aldrich S0130, batch #WXBB7152V) in male seven-week-old C57BL/6J (Charles River) mice. Glycemia was tested before, and seven days after injection. All injected mice had blood glucose concentration >350 mg/dL from day seven and were used for analgesic testing of the compounds from day 14. One mouse had to be euthanized at seven days post injection. This experiment was performed by Phenotype Expertise, Marseilles, France - Pain and CNS behaviour CRO under supervision of Stéphane Gaillard, PhD (CEO). […]
as §1, §2, §3, §4, §5, §6, §7, §8, §9, §10, §11, §12
A baseline Hargreaves test was performed on day 0 before inflammatory pain was induced as described in section 2.13. In the Hargreaves test, the mouse was placed in a container on a glass table and left to habituate for at least 15 min. Using the Hargreaves apparatus, a heat beam from beneath was directed towards the hind paws of the mouse, and the paw withdrawal time

Row | Compound | itching in the mice [1] | duration of significant pain relief [2]
1 | CCCCCCCCCCCCCCCCCC(=O)N(CCOCCOCCC(=O)N[C@@H](Cc1c[nH]cn1)C(=O)N[C@@H](Cc1c[nH]c2ccccc12)C(=O)N[C@@H](CC(C)C)C(=O)N[C@@H](CCCCN)C(=O)N[C@H](C(=O)O)C(C)C)CCOCCOCCC(=O)N[C@@H](Cc1c[nH]cn1)C(=O)N[C@@H](Cc1c[nH]c2ccccc12)C(=O)N[C@@H](CC(C)C)C(=O)N[C@@H](CCCCN)C(=O)N[C@H](C(=O)O)C(C)C [sPD5, stearoyl-NPEG4-(HWLKV)2] | profound itching | 
2 | CCCCCCCCCCCCCCCCCCCC(=O)N(CCOCCOCCC(=O)N[C@@H](Cc1c[nH]cn1)C(=O)N[C@@H](Cc1c[nH]c2ccccc12)C(=O)N[C@@H](CC(C)C)C(=O)N[C@@H](CCCCN)C(=O)N[C@H](C(=O)O)C(C)C)CCOCCOCCC(=O)N[C@@H](Cc1c[nH]cn1)C(=O)N[C@@H](Cc1c[nH]c2ccccc12)C(=O)N[C@@H](CC(C)C)C(=O)N[C@@H](CCCCN)C(=O)N[C@H](C(=O)O)C(C)C [aPD5, arachidoyl-NPEG4-(HWLKV)2] | profound itching | 
3 | CC(C)C[C@H](CN)CC(=O)O [pregabalin, reference compound] |  | up to 4 hours
